Here are results for nine compounds from US9708314B2, “Heterocyclic amide compound” (NISSAN CHEMICAL INDUSTRIES, LTD., priority 2013, dated 2017).

Format in all cases: in vivo
Data set [1] has as its system Echinochloa oryzacola Vasing. In words: Test Example 2: herbicidal activity, application during weed generation in submerged conditions. The conditions noted are these: Eighteenth Table; application herbicide amount 320 g/ha. In a few lines:
(§1)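 Alluvial soil in Wagner pots flooded to 4 cm water depth; seeds sown mixed, grown in greenhouse at 25–30 °C. At one- to two-leaf stage, emulsion diluted with water to the set rate (g/ha) was applied to the water surface. Effect scored 0–5 by herbicidal ratio three weeks later.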

Data set [2] concerns Scirpus juncoides. The description is as above. The conditions noted are these: Eighteenth Table; application herbicide amount 320 g/ha. In a few lines: as §1
Data set [3] has as its system Monochoria vaginalis. Described as above. The conditions noted are these: Eighteenth Table; application herbicide amount 320 g/ha. The gist of the method:
as §1

Data set [4] concerns directly sowed Oryza sativa. In words: Test Example 3: effect on crop by application to foliage (Wagner pot, water depth 0.1-0.5 cm). The conditions noted are these: Nineteenth Table; application to foliage; application herbicide amount 320 g/ha. In a few lines: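 Plants are raised 14 days from seed in flooded-surface Wagner pots at 25–30 °C, sprayed on stems and leaves with diluted emulsion at a predetermined rate, and rated three weeks on using a 0–5 herbicidal-ratio scale (5 ≥90%).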

The test system of data set [5] is transplanted Oryza sativa. In words: Test Example 1: effect on crop, application before weed generation in submerged conditions. The conditions noted are these: Seventeenth Table; for a: transplanted Oryza sativa (effect on crop grade): Application herbicide amount 320 g/ha. In a few lines: (§2)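 Alluvial soil in Wagner pots flooded to 4 cm water depth; weed seeds sown and 2.5 leaf stage rice seedlings transplanted. Emulsion diluted in water applied to water surface on sowing day at stated g/ha. Greenhouse 25° C. to 30° C.; effects scored 0–5 by herbicidal ratio after three weeks.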

For data set [6], the system named is Echinochloa oryzacola Vasing. Nature of the data set: Test Example 1: herbicidal activity, application before weed generation in submerged conditions. The conditions noted are these: Seventeenth Table; for A: Echinochloa oryzicola Vasing. (herbicidal effect grade): Application herbicide amount 320 g/ha. The gist of the method: as §2
The test system of data set [7] is Scirpus juncoides. Described as above. The conditions noted are these: Seventeenth Table; for B: Scirpus juncoides (herbicidal effect grade): Application herbicide amount 320 g/ha. The gist of the method: as §2
Data set [8] deals with Monochoria vaginalis. The description is as above. The conditions noted are these: Seventeenth Table; for C: Monochoria vaginalis (herbicidal effect grade): Application herbicide amount 320 g/ha. The gist of the method: as §2
[9] abbreviates: application herbicide amount 320 g/ha.

SMILES strings stand for the structures.

Turning to `Cn1nnnc1NC(=O)c1ccc(C(F)(F)F)n2c(N3CCOCC3)nnc12` [2-075], in data set [1], the “A (Echinochloa oryzicola Vasing.) herbicidal ratio grade” value is 5 (Herbicidal ratio of 90% or more (almost completely withered)). Besides, the “B (Scirpus juncoides) herbicidal ratio grade” value in the data set with Scirpus juncoides [2] was 5 (Herbicidal ratio of 90% or more (almost completely withered)). For the same compound, the “C (Monochoria vaginalis) herbicidal ratio grade” value in the data set with Monochoria vaginalis [3] is given as 5 (Herbicidal ratio of 90% or more (almost completely withered)). Moreover, in data set [4], the “b (effect on crop grade)” value is listed as 5 (Herbicidal ratio of 90% or more (almost completely withered)). Moreover, the “a: transplanted Oryza sativa (effect on crop grade)” value (shortened to “a: transplanted Oryza sativa”) in data set [5] was 5 (Herbicidal ratio of 90% or more (almost completely withered)). Also, the “A: Echinochloa oryzicola Vasing. (herbicidal effect grade)” value in data set [6] was 5 (Herbicidal ratio of 90% or more (almost completely withered)). For the same compound, the “B: Scirpus juncoides (herbicidal effect grade)” value (“B: Scirpus juncoides” below) in the data set with Scirpus juncoides [7] is on record as 5 (Herbicidal ratio of 90% or more (almost completely withered)). Besides, the “C: Monochoria vaginalis (herbicidal effect grade)” value (“C: Monochoria vaginalis” for short) in the data set with Monochoria vaginalis [8] is reported as 5 (Herbicidal ratio of 90% or more (almost completely withered)).
`CCn1nc2c(C(=O)Nc3nnnn3C)ccc(C(F)(F)F)n2c1=O` [6-004]: the “A (Echinochloa oryzicola Vasing.) herbicidal ratio grade” value is 3 (Herbicidal ratio of 40% or more and less than 70%) in data set [1]; 0 (Herbicidal ratio of 5% or less (almost no effect)) in data set [6] (setting [9]). For the same compound, the “B (Scirpus juncoides) herbicidal ratio grade” value with Scirpus juncoides [2] and in the data set on Scirpus juncoides [7] (setting [9]) was 0 (Herbicidal ratio of 5% or less (almost no effect)) each time. Moreover, the “C (Monochoria vaginalis) herbicidal ratio grade” value in the data set with Monochoria vaginalis [3] was 2 (Herbicidal ratio of 20% or more and less than 40%); in the data set on Monochoria vaginalis [8] (setting [9]) it was 2 (Herbicidal ratio of 20% or more and less than 40%). In addition, in data set [4], the “b (effect on crop grade)” value was 3 (Herbicidal ratio of 40% or more and less than 70%). Moreover, in data set [5] (setting [9]), the “a (transplanted Oryza sativa) effect on crop grade” value is on record as 0 (Herbicidal ratio of 5% or less (almost no effect)).
For `COCCN(C)c1nnc2c(C(=O)Nc3nnnn3C)ccc(C(F)(F)F)n12` [2-079], the “A (Echinochloa oryzicola Vasing.) herbicidal ratio grade” value in data set [1] is given as 5 (Herbicidal ratio of 90% or more (almost completely withered)). The “B (Scirpus juncoides) herbicidal ratio grade” value in the data set on Scirpus juncoides [2] is on record as 5 (Herbicidal ratio of 90% or more (almost completely withered)). The “C (Monochoria vaginalis) herbicidal ratio grade” value in the data set with Monochoria vaginalis [3] is on record as 5 (Herbicidal ratio of 90% or more (almost completely withered)). For the same compound, in data set [4], the “b (effect on crop grade)” value is 5 (Herbicidal ratio of 90% or more (almost completely withered)). For the same compound, in data set [5], the “a: transplanted Oryza sativa” value is 4 (Herbicidal ratio of 70% or more and less than 90%). Also, the “A: Echinochloa oryzicola Vasing. (herbicidal effect grade)” value in data set [6] is on record as 5 (Herbicidal ratio of 90% or more (almost completely withered)). For the same compound, the “B: Scirpus juncoides” value in the data set on Scirpus juncoides [7] is recorded as 5 (Herbicidal ratio of 90% or more (almost completely withered)). Moreover, the “C: Monochoria vaginalis” value with Monochoria vaginalis [8] was 5 (Herbicidal ratio of 90% or more (almost completely withered)).
With `CCN(CC)c1nnc2c(C(=O)Nc3nnnn3C)ccc(C(F)(F)F)n12` [2-089], the “A (Echinochloa oryzicola Vasing.) herbicidal ratio grade” value in data set [1] is 4 (Herbicidal ratio of 70% or more and less than 90%). Moreover, in the data set on Scirpus juncoides [2], the “B (Scirpus juncoides) herbicidal ratio grade” value was 4 (Herbicidal ratio of 70% or more and less than 90%). Besides, the “C (Monochoria vaginalis) herbicidal ratio grade” value with Monochoria vaginalis [3] was 5 (Herbicidal ratio of 90% or more (almost completely withered)). In data set [4], the “b (effect on crop grade)” value was 2 (Herbicidal ratio of 20% or more and less than 40%). Further, the “a: transplanted Oryza sativa” value in data set [5] is 4 (Herbicidal ratio of 70% or more and less than 90%). Also, the “A: Echinochloa oryzicola Vasing. (herbicidal effect grade)” value in data set [6] is listed as 5 (Herbicidal ratio of 90% or more (almost completely withered)). Moreover, the “B: Scirpus juncoides” value in the data set on Scirpus juncoides [7] is 5 (Herbicidal ratio of 90% or more (almost completely withered)). Moreover, the “C: Monochoria vaginalis” value in the data set with Monochoria vaginalis [8] was 5 (Herbicidal ratio of 90% or more (almost completely withered)).
Regarding `COc1ccc(Cc2nnc3c(C(=O)Nc4nnnn4C)ccc(C(F)(F)F)n23)cc1` [2-065], the “A (Echinochloa oryzicola Vasing.) herbicidal ratio grade” value in data set [1] was 5 (Herbicidal ratio of 90% or more (almost completely withered)). Besides, the “B (Scirpus juncoides) herbicidal ratio grade” value in the data set with Scirpus juncoides [2] was 4 (Herbicidal ratio of 70% or more and less than 90%). Moreover, in the data set on Monochoria vaginalis [3], the “C (Monochoria vaginalis) herbicidal ratio grade” value is 4 (Herbicidal ratio of 70% or more and less than 90%). Further, in data set [4], the “b (effect on crop grade)” value was 3 (Herbicidal ratio of 40% or more and less than 70%). The “a: transplanted Oryza sativa” value in data set [5] was 2 (Herbicidal ratio of 20% or more and less than 40%). Also, in data set [6], the “A: Echinochloa oryzicola Vasing. (herbicidal effect grade)” value is recorded as 5 (Herbicidal ratio of 90% or more (almost completely withered)). The “B: Scirpus juncoides” value with Scirpus juncoides [7] is 4 (Herbicidal ratio of 70% or more and less than 90%). In addition, the “C: Monochoria vaginalis” value in the data set with Monochoria vaginalis [8] is 4 (Herbicidal ratio of 70% or more and less than 90%).
With `Cn1nnnc1NC(=O)c1ccc(C(F)(F)F)n2c(Nc3ccccc3)nnc12` [2-056], in data set [1], the “A (Echinochloa oryzicola Vasing.) herbicidal ratio grade” value was 3 (Herbicidal ratio of 40% or more and less than 70%). Also, the “B (Scirpus juncoides) herbicidal ratio grade” value in the data set on Scirpus juncoides [2] is 3 (Herbicidal ratio of 40% or more and less than 70%). Moreover, the “C (Monochoria vaginalis) herbicidal ratio grade” value in the data set on Monochoria vaginalis [3] was 3 (Herbicidal ratio of 40% or more and less than 70%). Moreover, the “b (effect on crop grade)” value in data set [4] was 4 (Herbicidal ratio of 70% or more and less than 90%). Besides, the “a: transplanted Oryza sativa” value in data set [5] is 1 (Herbicidal ratio of 5% or more and less than 20%). For the same compound, in data set [6], the “A: Echinochloa oryzicola Vasing. (herbicidal effect grade)” value is 4 (Herbicidal ratio of 70% or more and less than 90%). Further, the “B: Scirpus juncoides” value in the data set with Scirpus juncoides [7] is 4 (Herbicidal ratio of 70% or more and less than 90%). Moreover, the “C: Monochoria vaginalis” value in the data set with Monochoria vaginalis [8] is 3 (Herbicidal ratio of 40% or more and less than 70%).
For the compound `CCC(C)Sc1nnc2c(C(=O)Nc3nnnn3C)ccc(C(F)(F)F)n12` (stereo not drawn) [2-072], the “A (Echinochloa oryzicola Vasing.) herbicidal ratio grade” value in data set [1] is 5 (Herbicidal ratio of 90% or more (almost completely withered)). The “B (Scirpus juncoides) herbicidal ratio grade” value in the data set with Scirpus juncoides [2] is listed as 5 (Herbicidal ratio of 90% or more (almost completely withered)). In the data set on Monochoria vaginalis [3], the “C (Monochoria vaginalis) herbicidal ratio grade” value is 5 (Herbicidal ratio of 90% or more (almost completely withered)). In addition, the “b (effect on crop grade)” value in data set [4] was 1 (Herbicidal ratio of 5% or more and less than 20%). The “a: transplanted Oryza sativa” value in data set [5] is 3 (Herbicidal ratio of 40% or more and less than 70%). Moreover, the “A: Echinochloa oryzicola Vasing. (herbicidal effect grade)” value in data set [6] is given as 5 (Herbicidal ratio of 90% or more (almost completely withered)). Moreover, in the data set with Scirpus juncoides [7], the “B: Scirpus juncoides” value is 5 (Herbicidal ratio of 90% or more (almost completely withered)). The “C: Monochoria vaginalis” value in the data set on Monochoria vaginalis [8] is reported as 5 (Herbicidal ratio of 90% or more (almost completely withered)).
Turning to `Cn1nnnc1NC(=O)c1ccc(C(F)(F)F)n2c([S+](C)[O-])nnc12` (stereo not drawn) [2-067], the “A (Echinochloa oryzicola Vasing.) herbicidal ratio grade” value in data set [1] is 5 (Herbicidal ratio of 90% or more (almost completely withered)). The “B (Scirpus juncoides) herbicidal ratio grade” value with Scirpus juncoides [2] was 4 (Herbicidal ratio of 70% or more and less than 90%). Also, the “C (Monochoria vaginalis) herbicidal ratio grade” value with Monochoria vaginalis [3] was 5 (Herbicidal ratio of 90% or more (almost completely withered)). In addition, the “b (effect on crop grade)” value in data set [4] is given as 5 (Herbicidal ratio of 90% or more (almost completely withered)). Besides, the “a: transplanted Oryza sativa” value in data set [5] is reported as 5 (Herbicidal ratio of 90% or more (almost completely withered)). Also, the “A: Echinochloa oryzicola Vasing. (herbicidal effect grade)” value in data set [6] was 5 (Herbicidal ratio of 90% or more (almost completely withered)). The “B: Scirpus juncoides” value with Scirpus juncoides [7] was 4 (Herbicidal ratio of 70% or more and less than 90%). Besides, the “C: Monochoria vaginalis” value in the data set on Monochoria vaginalis [8] is 4 (Herbicidal ratio of 70% or more and less than 90%).
Regarding `COCCNc1nnc2c(C(=O)Nc3nnnn3C)ccc(C(F)(F)F)n12` [2-074], in data set [1], the “A (Echinochloa oryzicola Vasing.) herbicidal ratio grade” value is 4 (Herbicidal ratio of 70% or more and less than 90%). For the same compound, in the data set with Scirpus juncoides [2], the “B (Scirpus juncoides) herbicidal ratio grade” value is 4 (Herbicidal ratio of 70% or more and less than 90%). Moreover, the “C (Monochoria vaginalis) herbicidal ratio grade” value in the data set with Monochoria vaginalis [3] is 3 (Herbicidal ratio of 40% or more and less than 70%). Moreover, in data set [4], the “b (effect on crop grade)” value is reported as 5 (Herbicidal ratio of 90% or more (almost completely withered)). For the same compound, the “a: transplanted Oryza sativa” value in data set [5] was 3 (Herbicidal ratio of 40% or more and less than 70%). The “A: Echinochloa oryzicola Vasing. (herbicidal effect grade)” value in data set [6] was 4 (Herbicidal ratio of 70% or more and less than 90%). Besides, in the data set on Scirpus juncoides [7], the “B: Scirpus juncoides” value was 4 (Herbicidal ratio of 70% or more and less than 90%). Also, in the data set with Monochoria vaginalis [8], the “C: Monochoria vaginalis” value is 3 (Herbicidal ratio of 40% or more and less than 70%).
